Values of other authors as cited in patent US20160304881A1, “DDR1 ANTAGONIST OR AN INHIBITOR OF DDR1 GENE EXPRESSION FOR USE IN THE PREVENTION OR TREATMENT OF CRESCENTIC GLOMERULONEPHRITIS” (INSERM (INSTITUT NATIONAL DE LA SANTE ET DE LA RECHERCHE …, priority 2011, published 2016).

Target: DDR1 (Homo sapiens, UniProt Q08345)
Conditions: described in Day et al. (2008)

Chain of DDR1 (Q08345 19-913): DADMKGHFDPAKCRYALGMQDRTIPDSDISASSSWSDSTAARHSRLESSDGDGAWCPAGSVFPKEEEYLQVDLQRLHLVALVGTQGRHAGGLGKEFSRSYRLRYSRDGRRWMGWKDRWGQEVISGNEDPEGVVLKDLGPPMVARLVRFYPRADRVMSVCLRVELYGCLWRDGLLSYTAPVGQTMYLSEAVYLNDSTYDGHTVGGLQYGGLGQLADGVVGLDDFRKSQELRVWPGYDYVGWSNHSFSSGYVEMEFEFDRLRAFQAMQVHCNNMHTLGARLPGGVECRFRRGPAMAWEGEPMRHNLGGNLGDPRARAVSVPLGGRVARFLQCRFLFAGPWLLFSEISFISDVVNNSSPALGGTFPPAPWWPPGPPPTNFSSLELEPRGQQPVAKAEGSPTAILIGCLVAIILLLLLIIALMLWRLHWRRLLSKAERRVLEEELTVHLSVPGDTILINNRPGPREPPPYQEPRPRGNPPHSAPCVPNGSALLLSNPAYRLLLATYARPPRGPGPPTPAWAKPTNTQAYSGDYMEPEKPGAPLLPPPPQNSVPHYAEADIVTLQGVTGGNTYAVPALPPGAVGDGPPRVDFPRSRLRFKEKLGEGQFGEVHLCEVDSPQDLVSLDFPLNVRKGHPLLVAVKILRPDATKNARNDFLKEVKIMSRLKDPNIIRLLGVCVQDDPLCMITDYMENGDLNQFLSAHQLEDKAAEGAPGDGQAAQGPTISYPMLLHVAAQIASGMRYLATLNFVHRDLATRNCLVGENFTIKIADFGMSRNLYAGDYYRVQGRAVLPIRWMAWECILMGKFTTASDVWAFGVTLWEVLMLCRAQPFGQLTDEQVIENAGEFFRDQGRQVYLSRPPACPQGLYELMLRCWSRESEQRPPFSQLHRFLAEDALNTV

| SMILES | collagen-induced DDR1 activation |
| --- | --- |
| Cc1nc(Nc2ncc(C(=O)Nc3c(C)cccc3Cl)s2)cc(N2CCN(CCO)CC2)n1 [dasatinib, N-(2-chloro-6-methylphenyl)-2-[[6-[4-(2-hydroxyethyl)-1-piperazinyl]-2-methyl-4-pyrimidinyl]amino]-5-thiazole carboxamide] | inhibitors of collagen-induced DDR1 activation |
| Cc1cn(-c2cc(NC(=O)c3ccc(C)c(Nc4nccc(-c5cccnc5)n4)c3)cc(C(F)(F)F)c2)cn1 [nilotinib, 4-methyl-N-[3-(4-methyl-1H-imidazol-1-yl)-5-(trifluoromethyl)phenyl]-3-[(4-pyridin-3-ylpyrimidin-2-yl)amino]benzamide] | inhibitors of collagen-induced DDR1 activation |
